Experimental data: patent US20040110680A1, “Beta-alethine use in cell culture and therapy” (Regents of the University of New Mexico, priority 1990, published 2004)

Columns and labels:
[1] = The Merck Index, 9th edition (#221); cited from earlier work
[2] = test system: NS-1 myeloma cells; assay: NS-1 myeloma in inoculated mice, early intervention; format: in vivo
Excerpt: To assure NS-1 propagation in vivo it is essential to remove DMSO (the cryostatic agent dimethyl sulfoxide) through several medium changes and dilutions; this also serves to maintain the cells in log-phases growth. […] The mice were maintained with Wayne Rodent Blox (Wayne Research Animal Diets, Chicago, Ill., USA) ad lib. and tap water.
The inoculated mice were compared to a) untreated controls and b) to carrier-injected (saline-injected) controls.

[3] = test system: human peripheral blood leukocytes (HPBLs); assay: Non-antigen-specific immunoglobulin synthesis and secretion by HPBLs, protein-A facilitated plaque assay (Ig-PFC); format: cell-based
Excerpt: FIG. 2 illustrates data from a series of experiments designed to assess the effect of β-alethine on non-antigen-specific immunoglobulin synthesis and secretion in vitro by human peripheral blood leukocytes (HPBLs), generally characterized as a peripheral lymphoid organ primarily populated by medium-sized, mature lymphocytes. In these experiments, blood was taken from healthy male humans; the blood was then defibrinated on glass beads, and the leukocytes separated by centrifugation (buffy coat technique). Residual red blood cells were lysed with a brief treatment with 0.85% ammonium chloride. The leukocytes were counted and dispensed into 24 well tissue culture trays (LUX, Flow General, McClean, Md., USA) in 1 ml of RPMI 1640 basal medium supplemented with penicillin, streptomycin, 10% fetal calf serum, and L-glutamine. β-alethine was added to test cultures at various concentrations in 30 microliter doses. The cells were harvested as indicated in FIG. 2 at various times between 72 and 144 hours of culture and tested for antibody production using a conventional protein-A facilitated plaque assay (A-PFC or Ig-PFC). […] In addition, aliquots of cells were also tested for proliferation status by treating them with 0.5 μCi of tritiated thymidine (6-9 Ci/mole) followed by assessing the level of incorporation of radioactivity into newly synthesized DNA. […]

[4] = test system: IMR-90 human fetal lung fibroblasts; assay: Maximum population doubling level (PDL) of IMR-90 fibroblasts, delay of cellular senescence; format: cell-based
Excerpt: This cell line is available from the American Type Culture Collection (ATCC, Bethesda, Md., USA) and is used as a standard for in vitro cellular senescence studies. Cellular senescence is loosely defined as those cellular process(es) that together result in the cell's inability to replenish itself in culture. This model represents aging processes in vivo, and cell lines developed from humans of different ages have PDL's in vitro which are inversely related to the chronological age of the donor. The IMR-90 cells depicted in FIG. 1 were grown under ideal conditions in McCoy's 5A synthetic medium supplemented with HEPES buffer at 10 mM; 100 units penicillin G/ml and 100 μg streptomycin/ml at standard concentrations; new born calf serum (NBCS) at 20% (V/V); and L-glutamine at 2 mM. The treated cell cultures were augmented with different concentrations of β-alethine (as indicated) dissolved in phosphate-buffered saline (PBS)—-always in a standard volume of 30 microliters per culture. […] The cells were then washed twice with the complete medium and counted in a double Neubauer hemacytometer; 2 million cells were aliquoted into a fresh tissue culture flask (T-75, polystyrene by LUX, Flow General, McClean, Md., USA) with 20 ml of fresh complete medium. […]

[5] = test system: Murine hepatocytes; assay: Adaptation of culture-resistant hepatocytes to culture (colony count); format: cell-based, BALBc/J mice
Excerpt: FIG. 4 illustrates data from a single experiment designed to study the use of β-alethine for adapting cells to culture. The culture-resistant cells employed (hepatocytes) were taken from in vivo to in vitro growth. Murine hepatocytes were chosen owing to their being especially difficult to adapt to culture. […] In this experiment a single liver lobe from one of the BALBc/J mice was excised, pressed through a 90 mesh stainless steel screen, washed, and placed in T-25 tissue culture flasks (10 for LUX, Flow General, McClean, Md., USA). All cultures were maintained in 10 ml of the same medium as described in Example III (RPMI-1640 plus fetal calf serum plus pen/strep plus L-glutamine) and the test cultures exposed to various concentrations of β-alethine as indicated in FIG. 4. […] It was possible to obtain some viable colonies from the control cultures, but only if 10- to 20-fold higher initial cell concentrations were used; therefore the β-alethine was between 500- and 1000-fold more efficient in adapting murine hepatocytes to in vitro culture than control, i.e., saline-treated medium. […] The effect is again dose-dependent, as illustrated.

[6] = test system: NS-1 myeloma cells; format: in vivo; conditions: single mouse, 100 μg/kg; tumor cells remained in skeletal muscle, subcutaneous tissue, a mammary gland
Procedure: NS-1 myeloma cells (ATCC TIB 18, P3/NS1/1-Ag4-1) were employed as inoculant; these cells have proven to be about 90% effective in establishing myelomas in mice according to the exemplified procedure, and the untreated myelomas are substantially fatal within about two weeks.
The cells were grown for several passages (preferably one week) in a sterile environment consisting of RPMI 1640 (Whittaker M. A. Bioproducts, Walkersville, Md., USA) containing 10% fetal calf serum (Hyclone Laboratories, Logan, Utah, USA), 2 mM L-glutamine, 5,000 units of penicillin, and 5 mg streptomycin in 75 cm^2 polystyrene tissue-culture flasks (Corning Glassworks, Corning, N.Y., USA) in a humidified chamber at 37° C. and under 6% CO2. To assure NS-1 propagation in vivo it is essential to remove DMSO (the cryostatic agent dimethyl sulfoxide) through several medium changes and dilutions; this also serves to maintain the cells in log-phases growth. […]
Wasting of the tumor and not the mouse proper was confirmed by weighing the debulked carcass. […] It was thus tentatively determined that the bone demineralized due to rapid growth of the tumor resulting in the fracture, a process which requires calcium and phosphate, and which would also explain the subsequent rapid extraskeletal deposition of calcium phosphate as the tumor was resorbed.

[7] = i.p., Monday, Wednesday, Friday from day 2 through day 47

NCCC(=O)NCCS [β-aletheine]
stability in air and aqueous solutions [1]: unstable in air and aqueous solutions

NCCC(=O)NCCSSCCNC(=O)CCN [β-alethine, N,N′-bis-(β-alanyl-2-aminoethyl) Disulfide]
deaths ([2]; 10 pg/kg mouse): two deaths
normal weight gain of the mice ([2]; 10 μg/kg): not significantly
persistence of the palpable tumor before regression ([2]; 10 μg/kg, one mouse): 20 days
normal weight gain of the mice ([2]; 100 μg/kg): slightly inhibited
fraction of animals that ultimately contracted tumor ([2]; at about 10 pg/kg or 1 ng/kg, without treatment 75% euthanized or died): one-third to two-thirds
mice developing a palpable tumor ([2]; at about 10 μg/kg or 100 μg/kg): only one mouse developed a palpable tumor
therapeutic minimal threshold (lower end of effective range) for preventing onset of NS-1 myeloma [2, 7]: 10 pg/kg mouse
upper end of effective concentration range for preventing onset of NS-1 myeloma [2, 7]: 100 μg/kg mouse
morphology of tumors developing under therapy ([2]; untreated controls typically developed ascites): with few exceptions solid masses
optimal concentration for immunoglobulin production ([3]; HPBLs): about 5 nanograms/ml culture
immunoglobulin production relative to untreated control ([3]; dose-dependent, 72 to 144 hours of culture): approximately 60 times the untreated control levels
increase in cell number (biomass) ([4]; absolute terms, factor of 2 raised to the power 55): 3.6×10^16 fold
life expectancy of the cells ([4]; augmentation of growth versus untreated cells): doubling of the life expectancy
colonies of hepatocytes observed ([5]; 10 ng/ml, no colonies in the control culture): approximately 50 colonies
stability of treated cells in culture ([5]; long-term culture, in contrast to control cells): stable in culture
tumor cells in remaining organs (histology) [6]: none of the remaining organs contained tumor cells
